Results reported in article PMC10035387 (Cancer Research Communications, 2022).
Where two headings read alike, the source gives them in different places.

Columns and labels:
[1] = system: cytochrome P450 (CYP) 2C8 and CYP3A4; design: method as in earlier work; details: cited from earlier work
[2] = system: metastatic pancreatic cancer; details: cited from earlier work; for Median OS: P < 0.001; for Efficacy in randomized clinical trials: patients with PDAC
[3] = Phase Ib study: adverse events, dose-limiting toxicities, MTD
Description: The criteria for dose escalation were based on a modified toxicity probability method ([20]), using a statistical probability algorithm calculated with all patients treated at the same dose level. […] The study was conducted in accordance with legal and regulatory requirements and the Declaration of Helsinki. Prior to participant enrollment, the study was approved by the Institutional Review Board/Ethics Committee at each site at which it was conducted. Patients provided written informed consent before any study procedures were performed.

[4] = human, in vivo
Description: (§1) Other outcomes included safety, pharmacokinetics, pharmacodynamics, tissue/blood biomarkers, objective tumor response, progression-free survival (PFS), and OS assessments.

phospho-Rb (pRb) = test: pRb IHC in serial paired skin biopsy specimens; type: in vivo, human; details: skin biopsies
[5] = cited from earlier work
Ki67 = Ki67 IHC in serial paired skin biopsy specimens; type: in vivo, human; details: skin biopsies
[6] = Phase Ib study: plasma pharmacokinetics; details: steady state, overall population
Description: as §1

[7] = system: PDAC cell lines that retain RB1 expression; design: method as in PMID 29080858; details: cited from earlier work
Panc265 model = details: cited from earlier work
[8] = after 2 weeks of palbociclib treatment, first-line MTD group
[9] = after a further 2 weeks of palbociclib treatment
[10] = after the 1-week palbociclib break, before cycle 2
[11] = PALOMA-1, patients with breast cancer
[12] = PALOMA-2, patients with breast cancer

## CC(=O)O[C@H]1C(=O)[C@@]2(C)[C@H]([C@H](OC(=O)c3ccccc3)[C@]3(O)C[C@H](OC(=O)[C@H](O)[C@@H](NC(=O)c4ccccc4)c4ccccc4)C(C)=C1C3(C)C)[C@]1(OC(C)=O)CO[C@@H]1C[C@@H]2O [Paclitaxel]
[1]
  Metabolizing enzymes: metabolized primarily by cytochrome P450 (CYP) 2C8 and CYP3A4

## Nc1ccn([C@@H]2O[C@H](CO)[C@@H](O)C2(F)F)c(=O)n1 [gemcitabine]
[2]; FOLFIRINOX versus gemcitabine
  Median OS: 6.8 months
[2]; GA versus gemcitabine alone, metastatic pancreatic cancer
  Median OS: 6.7 months

## CC(=O)c1c(C)c2cnc(Nc3ccc(N4CCNCC4)cn3)nc2n(C2CCCC2)c1=O [palbociclib]
[3]; all patients
  Permanent discontinuation of palbociclib due to bacterial gastritis: 1.3%
  Permanent discontinuation of palbociclib due to infection: 1.3%
  Permanent discontinuation of palbociclib due to sepsis: 1.3%
[3]; for 21 of every 28 days, with nab-paclitaxel
  MTD of palbociclib: 100 mg
[4]
  CL/F, geometric mean: 79.95 L/h
  CL/F, median: 74.10 L/h
  Ctrough, geometric mean: 34.89 ng/mL
  Ctrough, median: 34.60 ng/mL
  tmax, median: 4.17 h
phospho-Rb (pRb); [8]
  pRb level: decreased
phospho-Rb (pRb); [9]
  pRb level: decreased again to below baseline
phospho-Rb (pRb); [10]
  pRb level: rebounded to baseline or higher levels
[5]; [11]
  AUCτ: 1,933 ng·hour/mL
  Cmax: 108 ng/mL
[5]; [12]
  AUCτ: 1,992 ng·hour/mL
  Cmax: 110 ng/mL
Ki67; [8]
  Ki67 level: decreased
Ki67; [9]
  Ki67 level: decreased again to below baseline
Ki67; [10]
  Ki67 level: rebounded to baseline or higher levels
[2]; CDKN2A-mutated advanced pancreatic cancer
  Clinical activity: did not have meaningful clinical activity
[6]
  Dose-normalized geometric mean AUCτ: 1,569 ng·hour/mL
  Dose-normalized geometric mean Cmax: 90.44 ng/mL
[7]
  Effect on PDAC cell lines: induces cell-cycle arrest and apoptosis

## CCc1cnn2c(NCc3ccc[n+]([O-])c3)cc(N3CCCC[C@H]3CCO)nc12 [dinaciclib]
Panc265 model
  Sensitivity of Panc265 model: sensitive

## FOLFIRINOX
[2]; FOLFIRINOX versus gemcitabine
  Median OS: 11.1 months

B1: pegilodecakin: agent not efficacious in randomized clinical trials in PDAC (protein, UniProt P22301 19-178, looked up)
Interleukin-10: SPGQGTQSENSCTHFPGNLPNMLRDLRDAFSRVKTFFQMKDQLDNLLLKESLLEDFKGYLGCQALSEMIQFYLEEVMPQAENQDPDIKAHVNSLGENLKTLRLRLRRCHRFLPCENKSKAVEQVKNAFNKLQEKGIYKAMSEFDIFINYIEAYMTMKIRN
modifications: PEGylated
[2]
  Efficacy in randomized clinical trials: not efficacious

B2: PEGPH20: agent not efficacious in randomized clinical trials in PDAC (protein, UniProt P38567 36-490, looked up)
Hyaluronidase PH-20: LNFRAPPVIPNVPFLWAWNAPSEFCLGKFDEPLDMSLFSFIGSPRINATGQGVTIFYVDRLGYYPYIDSITGVTVNGGIPQKISLQDHLDKAKKDITFYMPVDNLGMAVIDWEEWRPTWARNWKPKDVYKNRSIELVQQQNVQLSLTEATEKAKQEFEKAGKDFLVETIKLGKLLRPNHLWGYYLFPDCYNHHYKKPGYNGSCFNVEIKRNDDLSWLWNESTALYPSIYLNTQQSPVAATLYVRNRVREAIRVSKIPDAKSPLPVFAYTRIVFTDQVLKFLSQDELVYTFGETVALGASGIVIWGTLSIMRSMKSCLLLDNYMETILNPYIINVTLAAKMCSQVLCQEQGVCIRKNWNSSDYLHLNPDNFAIQLEKGGKFTVRGKPTLEDLEQFSEKFYCSCYSTLSCKEKADVKDTDAVDVCIADGVCIDAFLKPPMETEEPQIFYNASPSTLS
modifications: PEGylated; pegvorhyaluronidase alfa
[2]
  Efficacy in randomized clinical trials: not efficacious
